The first experiment can be described thus: CD69 Whole Blood Assay (CD69 Hu Blood FACS). In kind it is cell-based, human. The note with it: Homo sapiens, Lymphocyte, read-out: CD69 Hu Blood FACS IC70 (μM). The gist of the method: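 Compounds tested for blocking B-cell CD69 induction by flow cytometry in human whole blood, with activation via anti-human IgM goat F(ab′)2 crosslinking of surface IgM.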
For orientation: IC70 means the concentration at which the effect reaches the 70% level. Take `Cn1cc(-c2ccnc(N3CCn4c(cc5c4CCCC5)C3=O)c2CO)cc(Nc2ccc(N3[C@@H]4CC[C@H]3CN(C3COC3)C4)cn2)c1=O` [Example 152, 2-{3′-Hydroxymethyl-1-methyl-5-[5-((1 S,5R)-3-oxetan-3-yl-3,8-diaza-bicyclo[3.2.1]oct-8-yl)-pyridin-2-ylamino]-6-oxo-1,6-dihydro-[3,4′]bipyridinyl-2′-yl}-3,4,6,7,8,9-hexahydro-2H-pyrazino[1,2-a]indol-1-one]: the IC70 was determined as 0.188 µM.

The same experiment, now with this note: Lymphocyte; human whole blood, anti-IgM activated B lymphocytes, FACS; IC70; Table 1; read-out: CD69 Hu Blood FACS IC70.
For `CN1CCn2nc(Nc3cc(-c4cncc(N5CCn6c(cc7c6CCCC7)C5=O)c4CO)cn(C)c3=O)cc2C1` [Example 138, 2-(4-(Hydroxymethyl)-5-(1-methyl-5-(5-methyl-4,5,6,7-tetrahydropyrazolo[1,5-a]pyrazin-2-ylamino)-6-oxo-1,6-dihydropyridin-3-yl)pyridin-3-yl)-3,4,6,7,8,9-hexahydropyrazino[1,2-a]indol-1(2H)-one], the IC70 turned out to be 0.353 µM.
Same read-out and setting: the same measure for `Cn1cc(-c2ccnc(N3CCc4c(cc5n4CCCC5)C3=O)c2CO)cc(Nc2ccc(N3CCN(C4COC4)CC3)cn2)c1=O` [Example 139, 2-(3-(Hydroxymethyl)-4-(1-methyl-5-(5-(4-(oxetan-3-yl)piperazin-1-yl)pyridine-2-ylamino)-6-oxo-1,6-dihydropyridin-3-yl)pyridin-2-yl)-3,4,6,7,8,9-hexahydropyrido[3,4-b]indolizin-1(2H)-one]: 0.326 µM; for `C[C@H]1CN(C2COC2)CCN1c1ccc(Nc2cc(-c3ccnc(N4CCn5c(cc6c5CC(F)(F)CC6)C4=O)c3CO)cn(C)c2=O)nc1` [Example 140, (S)-7,7-Difluoro-2-(3-(hydroxymethyl)-4-(1-methyl-5-(5-(2-methyl-4-(oxetan-3-yl)piperazin-1-yl)pyridin-2-ylamino)-6-oxo-1,6-dihydropyridin-3-yl)pyridin-2-yl)-3,4,6,7,8,9-hexahydropyrazino[1,2-a]indol-1(2H)-one]: 0.308 µM.
`CN1CCn2nc(Nc3cc(-c4ccnc(N5CCn6c(cc7c6CC(C)(C)C7)C5=O)c4CO)cn(C)c3=O)cc2C1` [Example 141, 2-[3′-Hydroxymethyl-1-methyl-5-(5-methyl-4,5,6,7-tetrahydro-pyrazolo[1,5-a]pyrazin-2-ylamino)-6-oxo-1,6-dihydro-[3,4′]bipyridinyl-2′-yl]-7,7-dimethyl-3,4,7,8-tetrahydro-2H,6H-cyclopenta[4,5]pyrrolo[1,2-a]pyrazin-1-one]: the IC70 came out at 0.0266 µM.
On the same count and under the same terms, under `Cn1cc(-c2ccnc(N3CCn4c(cc5c4CCCC5)C3=O)c2CO)cc(Nc2ccncn2)c1=O` [Example 142, 2-[3′-Hydroxymethyl-1-methyl-6-oxo-5-(pyrimidin-4-ylamino)-1,6-dihydro-[3,4′]bipyridinyl-2′-yl]-3,4,6,7,8,9-hexahydro-2H-pyrazino[1,2-a]indol-1-one] stands 2.1 µM; under `Cn1cc(-c2ccnc(N3CCc4c(sc5c4CC(C)(C)C5)C3=O)c2CO)cc(Nc2ccncn2)c1=O` [Example 143, 6-[3′-Hydroxymethyl-1-methyl-6-oxo-5-(pyrimidin-4-ylamino)-1,6-dihydro-[3,4′]bipyridinyl-2′-yl]-2,2-dimethyl-2,3,5,6-tetrahydro-1H,4H-8-thia-6-aza-cyclopenta[a]inden-7-one], 0.0309 µM; under `Cn1cc(-c2ccnc(N3CCn4c(cc5c4CC(C)(C)C5)C3=O)c2CO)cc(Nc2ccncn2)c1=O` [Example 144, 2-[3′-Hydroxymethyl-1-methyl-6-oxo-5-(pyrimidin-4-ylamino)-1,6-dihydro-[3,4′]bipyridinyl-2′-yl]-7,7-dimethyl-3,4,7,8-tetrahydro-2H,6H-cyclopenta-[4,5]pyrrolo[1,2-a]pyrazin-1-one], 0.106 µM.
Same read-out and setting: under `C[C@H]1CN(C2COC2)CCN1c1ccc(Nc2cc(-c3ccnc(N4CCc5c(sc6c5CC(C)(C)C6)C4=O)c3CO)cn(C)c2=O)nc1` [Example 145, 6-{3′-Hydroxymethyl-1-methyl-5-[5-((S)-2-methyl-4-oxetan-3-yl-piperazin-1-yl)-pyridin-2-ylamino]-6-oxo-1,6-dihydro-[3,4′]bipyridinyl-2′-yl}-2,2-dimethyl-2,3,5,6-tetrahydro-1H,4H-8-thia-6-aza-cyclopenta[a]inden-7-one] stands 0.0147 µM; under `Cn1cc(-c2ccnc(N3CCn4c5c(c(F)c4C3=O)CCCC5)c2CO)cc(Nc2ccncn2)c1=O` [Example 146, 10-Fluoro-2-(3-(hydroxymethyl)-4-(1-methyl-6-oxo-5-(pyrimidin-4-ylamino)-1,6-dihydropyridin-3-yl)pyridin-2-yl)-3,4,6,7,8,9-hexahydropyrazino[1,2-a]indol-1(2H)-one], 0.0856 µM; under `CN1CCn2nc(Nc3cc(-c4ccnc(N5CCc6c(cc7n6CCCC7)C5=O)c4CO)cn(C)c3=O)cc2C1` [Example 147, 2-(3-(Hydroxymethyl)-4-(1-methyl-5-(5-methyl-4,5,6,7-tetrahydro-pyrazolo[1,5-a]pyrazin-2-ylamino)-6-oxo-1,6-dihydropyridin-3-yl)pyridin-2-yl)-3,4,6,7,8,9-hexahydropyrido[3,4-b]indolizin-1(2H)-one], 0.32 µM.
On the same count and under the same terms, under `C[C@H]1CN(C2COC2)CCN1c1ccc(Nc2cc(-c3ccnc(N4CCn5c(cc6c5CCCC6)C4=O)c3C3(O)COC3)cn(C)c2=O)nc1` [Example 148, (S)-2-(3-(3-Hydroxyoxetan-3-yl)-4-(1-methyl-5-(5-(2-methyl-4-(oxetan-3-yl)piperazin-1-yl)pyridin-2-ylamino)-6-oxo-1,6-dihydropyridin-3-yl)pyridin-2-yl)-3,4,6,7,8,9-hexahydropyrazino[1,2-a]indol-1(2H)-one] stands 5 µM.
For the compound `C[C@H]1CN(C2COC2)CCN1c1ccc(Nc2cc(-c3ccnc(N4CCc5c(cc6n5CCCC6)C4=O)c3CO)cn(C)c2=O)nc1` [Example 149, 2-{3′-Hydroxymethyl-1-methyl-5-[5-((S)-2-methyl-4-oxetan-3-yl-piperazin-1-yl)-pyridin-2-ylamino]-6-oxo-1,6-dihydro-[3,4′]bipyridinyl-2′-yl}-2,3,5,6,7,8-hexahydro-4H-2,4b-diaza-fluoren-1-one], the IC70 was determined as 0.0454 µM.
The same measure, in the same setting: under `CN1CCn2nc(Nc3cc(-c4cncc(N5CCn6c(cc7c6CC(C)(C)C7)C5=O)c4CO)cn(C)c3=O)cc2C1` [Example 150, 2-[4-Hydroxymethyl-1′-methyl-5′-(5-methyl-4,5,6,7-tetrahydro-pyrazolo[1,5-a]pyrazin-2-ylamino)-6′-oxo-1′,6′-dihydro-[3,3′]bipyridinyl-5-yl]-7,7-dimethyl-3,4,7,8-tetrahydro-2H,6H-cyclopenta[4,5]pyrrolo[1,2-a]pyrazin-1-one] stands 0.0316 µM; under `C[C@@H]1CN(C2COC2)CCN1c1ccc(Nc2cc(-c3ccnc(-n4ccn5c6c(cc5c4=O)CCCC6)c3CO)cn(C)c2=O)nc1` [Example 151, 2-{3′-Hydroxymethyl-1-methyl-5-[5-((R)-2-methyl-4-oxetan-3-yl-piperazin-1-yl)-pyridin-2-ylamino]-6-oxo-1,6-dihydro-[3,4′]bipyridinyl-2′-yl}-6,7,8,9-tetrahydro-2H-pyrazino[1,2-a]indol-1-one], 0.0455 µM; under `C[C@@H]1CN(C2COC2)CCN1c1ccc(Nc2cc(-c3ccnc(N4CCn5c(cc6c5CC(C)(C)C6)C4=O)c3CO)cn(C)c2=O)nc1` [Example 153, 2-{3′-Hydroxymethyl-1-methyl-5-[5-((R)-2-methyl-4-oxetan-3-yl-piperazin-1-yl)-pyridin-2-ylamino]-6-oxo-1,6-dihydro-[3,4′]bipyridinyl-2′-yl}-7,7-dimethyl-3,4,7,8-tetrahydro-2H,6H-cyclopenta[4,5]pyrrolo[1,2-a]pyrazin-1-one], 0.0238 µM.
The same measure, in the same setting: the same measure for `C[C@@H]1CN(C2COC2)CCN1c1ccc(Nc2cc(-c3ccnc(-n4ncc5c6c(sc5c4=O)CCCC6)c3CO)cn(C)c2=O)nc1` [Example 154, 3-{3′-Hydroxymethyl-1-methyl-5-[5-((R)-2-methyl-4-oxetan-3-yl-piperazin-1-yl)-pyridin-2-ylamino]-6-oxo-1,6-dihydro-[3,4′]bipyridinyl-2′-yl}-6,7,8,9-tetrahydro-3H-benzo[4,5]thieno[2,3-d]pyridazin-4-one]: 0.0374 µM; for `C[C@@H]1CN(c2ccc(Nc3cc(-c4ccnc(N5CCc6c(cc7n6CCCC7)C5=O)c4CO)cn(C)c3=O)nc2)[C@@H](C)CN1C1COC1` [Example 155, 2-{5-[5-((2S,5R)-2,5-Dimethyl-4-oxetan-3-yl-piperazin-1-yl)-pyridin-2-ylamino]-3′-hydroxymethyl-1-methyl-6-oxo-1,6-dihydro-[3,4′]bipyridinyl-2′-yl}-2,3,5,6,7,8-hexahydro-4H-2,4b-diaza-fluoren-1-one]: 0.0454 µM.
On the same count and under the same terms, under `C[C@@H]1CN(c2ccc(Nc3cc(-c4ccnc(N5CCn6c7c(c(F)c6C5=O)CCCC7)c4CO)cn(C)c3=O)nc2)[C@@H](C)CN1C1COC1` [Example 156, 2-{5-[5-((2S,5R)-2,5-Dimethyl-4-oxetan-3-yl-piperazin-1-yl)-pyridin-2-ylamino]-3′-hydroxymethyl-1-methyl-6-oxo-1,6-dihydro-[3,4′]bipyridinyl-2′-yl}-10-fluoro-3,4,6,7,8,9-hexahydro-2H-pyrazino[1,2-a]indol-1-one] stands 0.0145 µM; under `C[C@@H]1CN(c2ccc(Nc3cc(-c4cncc(N5CCn6c(cc7c6CCCC7)C5=O)c4CO)cn(C)c3=O)nc2)[C@@H](C)CN1C1COC1` [Example 157], 0.0298 µM.
Consider `C[C@@H]1CN(c2ccc(Nc3cc(-c4ccnc(N5CCn6c(cc7c6CC(C)(C)C7)C5=O)c4CO)cn(C)c3=O)nc2)[C@@H](C)CN1C1COC1` [Example 158, 2-{5-[5-((2S,5R)-2,5-Dimethyl-4-oxetan-3-yl-piperazin-1-yl)-pyridin-2-ylamino]-3′-hydroxymethyl-1-methyl-6-oxo-1,6-dihydro-[3,4′]bipyridinyl-2′-yl}-7,7-dimethyl-3,4,7,8-tetrahydro-2H,6H-cyclopenta[4,5]pyrrolo[1,2-a]pyrazin-1-one], for which the IC70 came to 0.02 µM.

The values are drawn from patent publication US10045983B2, “Heteroaryl pyridone and aza-pyrodine compounds” (Genentech, Inc., priority 2011, dated 2018).
